{"source": "patent US20090239868A1", "about": "(priority 2007, published 2009)", "key": {"[1]": {"test_system": "TGF-β induced PAI-1 production", "assay": "TGF-β induced PAI-1 production in HT1080 cells (Western blotting)", "type": "cell-based", "details": "Homo sapiens, HT-1080, TGF-β1 10 ng/mL, 6-hours incubation", "experimental": "After incubating HT1080 cells for 48 hours in the MEM medium containing 10% FBS (Fetal Bovine Serum), the medium was changed to a MEM medium containing 1% FBS, and TGF-β1 (final concentration: 10 ng/mL) only, or TGF-β1 (final concentration: 10 ng/mL) and the test substances were added and incubated. As a control, a culture solution without neither TGF-β1 nor the test substances was prepared. After 6-hours incubation, the culture fluids were collected, and the PAI-1 amounts in the culture fluids were measured by the Western blotting. The PAI-1 amount when TGF-β1 only was added being “100%,” and the PAI-1 amount in the control being “0%,” PAI-1 amounts at each concentration of the test substances (PAI-1 inhibition ratios) were calculated, and the concentrations of the compounds, which inhibited PAI-1 production to 50% (IC50) in amount, were obtained."}, "[2]": {"test_system": "TGF-β induced PAI-1 production", "assay": "TGF-β induced PAI-1 production in HepG2 cells (Human Serpin E1/PAI-1 DuoSet)", "type": "cell-based", "protocol": "HepG2 cells were seeded on a 96-well culture plate by 2×10^4 cells/well, and were incubated for 24 hours in the MEM medium containing 1% NEAA (Non-Essential Amino Acids), 1 mM pyruvate, and 10% FBS. Then, the medium was changed to a MEM medium containing 1% NEAA, 1 mM pyruvate and 1% FBS, and the cells were further incubated for 24 hours. Subsequently, after the medium was changed to a MEM medium containing 1% NEAA, 1 mM pyruvate and 1% FBS, and then the cells were treated with the test substances (final concentration: 1 μM or 0.1 μM) for one hour, TGF-β1 (final concentration: 1 ng/mL) was added and the cells were further incubated for 24 hours. As controls, a culture solution added TGF-β1 only, and a culture solution cultured without neither the test substances nor TGF-β1 were prepared. After the incubation, the PAI-1 amount was measured using Human Serpin E1/PAI-1 DuoSet (R&D Systems). The PAI-1 amount when treated with TGF-β1 only being “100%”, and the PAI-1 amount when treated without neither the test substances nor TGF-β1 being “0%”, the PAI-1 inhibition ratios of each test substance were calculated."}, "PAI-1 [3]": {"test_system": "PAI-1", "assay": "PAI-1 concentration in plasma of type II diabetes patients with obesity (Human PAI-1 ELISA Kit)", "type": "in vivo", "details": "200 mg orally twice a day for 12 weeks, plasma at 2, 4, 8, 12 weeks, FIG. 1", "experimental": "To 10 patients of the type II diabetes with obesity where PAI-1 overproduction was recognized, the compound (1) was administered orally 200 mg each time twice a day (after breakfast and after dinner) for 12 weeks. Blood was collected from each patient just before the administration of the compound (1) and 2, 4, 8, and 12 weeks later, and the PAI-1 concentration in plasma was measured using Human PAI-1 ELISA Kit (AssayPro)."}, "PAI-1 [4]": {"test_system": "PAI-1", "assay": "Immunostaining of PAI-1 expression cells among cells infiltrated in the lung, cigarette smoke exposed guinea pigs", "type": "in vivo, guinea pig", "experimental": "Using the smoking exposure system (INH06-CIGOIA, MIPS Inc.), 6-week old guinea pigs (Std: male Hartley, Japan SLC, Inc.) were exposed to smoke of 40 cigarettes (Peace (Registered Trademark), Japan Tobacco, Inc.) a day (20 cigarettes twice) for 25 continuous days (Chronic Obstructive Pulmonary Disease (COPD) model group: Control group: n=10). To these guinea pigs, from the day of exposure to the smoke of tobacco, the compound (1) (30 mg/kg/day or 100 mg/kg/day) or prednisolone (10 mg/kg/day) was continuously administered orally once a day for 25 days (Compound (1) 30 mg administered group: n=5, Compound (1) 100 mg administered group: n=5, Prednisolone administered group: n=5). Furthermore, as a normal group, guinea pigs (n=5) exposed to air without the administration of the compound (1) and prednisolone were prepared. On the following day of the last exposure, after preparing paraffin sections in the lungs of each guinea pig, collagen was stained by the Masson-trichrome method, and the accumulations of collagen in the alveoli were measured by the area rate with the image analysis.\nNext, the above paraffin section was stained by the immunostaining method using an anti PAI-1 antibody (PAI-1H-135; Santa Cruz; 250-fold dilution), and the ratio of PAI-1 expression cells to the total cell numbers infiltrated in the lung was measured. […]"}, "[5]": {"test_system": "cardiac infarction (ischemia-reperfusion) model rats", "assay": "Fibrosis ratio in left ventricle cardiac muscle, cardiac infarction (ischemia-reperfusion) model rats, Azan-Mallory stain", "type": "in vivo, rat", "details": "p.o., once a day for 28 days, control 7.5 ± 1.1", "experimental": "After the 8-week old rats (SPF: male SD, Japan SLC, Inc.) were anesthetized with Pentobarbital Sodium, their hearts were exteriorized, and the left anterior descending coronary arteries (LAD) were ligated by a suture needle with a thread. 30 minutes later, the ligations were removed, and the blood was reperfused for 24 hours. After that, the compound (1) (10 mg/kg/day, 30 mg/kg/day, 100 mg/kg/day) was orally administered once a day for 28 continuous days. Moreover, as a control, rats to which the compound (1) was not administered after the reperfusion (cardiac infarction (ischemia-reperfusion) model rats) were prepared. On the 29th day after the reperfusion, after preparing paraffin sections of cardiac muscle in the left ventricle of each rat, Azan-Mallory stain was carried out, the ratios of the stained area occupying the myocardial necrosis distant sites were obtained as the ratios of fibrosis by the image analyses."}, "[6]": {"test_system": "mustard oil infusion rats (cystitis rat)", "assay": "Bladder fibrosis score, mustard oil infusion rats (cystitis rat), Azan stain", "type": "in vivo", "details": "100 mg/kg/day orally for 10 days; control 2.6±0.1; p<0.01 Wilcoxon test", "experimental": "A polyethylene tube was inserted to the urethra of the 7 week-old rats (SPF: male Crj, Charles River Japan, Inc), and 0.4 mL of 5% mustard oil (diluted with liquid paraffin including 20% allyl isothiocyanate) was infused into the bladder. 60 minutes later, after withdrawing the liquid in the bladder with suctioning, the inside of the bladder was rinsed with saline. For 10 days including 3 days before the infusion of the mustard oil and 7 days after the infusion of the mustard oil, the compound (1) (100 mg/kg/day) was orally administered once a day (Compound (1) administered rat: n=6). Furthermore, as a control, mustard oil infusion rats (cystitis rat: n=6) to which the compound (1) was not administered were prepared. On the 8th day after the infusion of the mustard, the bladders were removed to prepare paraffin sections, the degrees of fibrosis were scored by Azan stain, and the evaluations were conducted. For the index of the scoring, those that have no abnormalities to the normal tissues being “1,” those that have minor fibrosis being “2,” those that have mild fibrosis being “3,” those that have moderate fibrosis being “4,” and those that have severe fibrosis being “5” were used. As a result, although the score of the control group was 2.6±0.1, the compound (1) administered group was 2.0±0.2, and a significant difference was confirmed (p<0.01: Wilcoxon test)."}, "[7]": {"test_system": "PAI-1 gene expression induced by PMA", "details": "J. Immunol., Vol. 165, pp. 3154-3161, 2000; cited from earlier work"}}, "note": "“Also recorded” adds a separate entry of the source."}
{"smiles": "O=C(Nc1cc(C(F)(F)F)cc(C(F)(F)F)c1)c1cc(Cl)ccc1O", "note": "[(2)]", "values": [{"measurement": "IC50", "setting": "[1]", "value": 5, "unit": "nM"}, {"measurement": "Inhibition Ratio (PAI-1)", "setting": "[2]; Compound Concentration: 0.1 μM", "value": 94.8, "unit": "%"}, {"measurement": "Inhibition Ratio (PAI-1)", "setting": "[2]; Compound Concentration: 1 μM", "value": ">90", "unit": "%"}, {"measurement": "IC50", "setting": "[2]; Homo sapiens, TGF-β1 1 ng/mL, 24 hours", "value": "~50", "unit": "nM"}]}
{"smiles": "O=C(Nc1cc(C(F)(F)F)ccc1C(F)(F)F)c1cc(Br)ccc1O", "note": "[(3)]", "values": [{"measurement": "IC50", "setting": "[1]", "value": 83, "unit": "nM"}, {"measurement": "Inhibition Ratio (PAI-1)", "setting": "[2]; Compound Concentration: 1 μM", "value": ">90", "unit": "%"}]}
{"smiles": "O=C(Nc1cc(C(F)(F)F)cc(C(F)(F)F)c1)c1cc(Cl)ccc1OC(=O)N1CCOCC1", "note": "[Compound (1)]", "values": [{"measurement": "concentration of PAI-1 in blood", "setting": "PAI-1 [3]", "value": "decreased"}, {"measurement": "total number of the infiltrating cells versus normal group", "setting": "PAI-1 [4]; compound (1) 100 mg administered group", "value": "at the same level"}, {"measurement": "ratio of PAI-1 expression cells to the total number of infiltrating cells in the lung", "setting": "PAI-1 [4]; oral once a day for 25 days, FIG. 3", "value": "decreased; also recorded: improved to the level of the normal group"}, {"measurement": "Fibrosis ratio", "setting": "[5]; 10 mg/kg", "value": "5.5 ± 0.4", "unit": "%"}, {"measurement": "Fibrosis ratio", "setting": "[5]; 30 mg/kg", "value": "4.9 ± 0.4", "unit": "%"}, {"measurement": "Fibrosis ratio", "setting": "[5]; 100 mg/kg", "value": "4.3 ± 0.5", "unit": "%"}, {"measurement": "fibrosis score (1 no abnormalities to 5 severe fibrosis)", "setting": "[6]", "value": "2.0±0.2"}]}
{"smiles": "C[C@@H]1C[C@@H]([C@H](O)CC2CC(=O)NC(=O)C2)C(=O)[C@@H](C)C1", "note": "[cycloheximide]", "values": [{"measurement": "PAI-1 gene expression induced by PMA", "setting": "[7]", "value": "inhibiting substance"}]}
